This passage reports LD50 and MIC results from US4921850A, “3-propenylcephem derivative” (Eisai Co., Ltd., priority 1986, dated 1990).

≈ marks a conversion by molar mass, not a printed value. Read-outs that look alike come from different tables or passages of the source.

A short description of one data set: in vivo. The following applies: read-out: values of acute toxicity. An excerpt:
(1) Acute toxicity in mouse:
The compounds according to this invention dissolved in a physiological saline solution were intravenously dosed to five ICR male 6 weeks-old mouse.

For data set [1], the system named is Morganella morganii EP-14. In words: Anti-bacterial activity (MIC), agar dilution. The class given is cell-based. The following applies: about 10^6 CFU/ml, 37° C. The procedure, abridged:
(§1)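 MIC values (μg/ml) come from agar dilution: strains grown overnight in Mueller-Hinton broth, diluted to roughly 10^6 CFU/ml, spotted on Mueller-Hinton agar containing twofold serial antibiotic dilutions, and read after 18 hours at 37° C.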
On the technique in general: In agar dilution, organisms are placed on agar that contains the substance at set levels.

Another data set has as its system Kleb. pneumoniae EK-6. The data set can be described thus: Anti-bacterial activity (MIC), agar dilution. Format: cell-based. The following applies: Kleb. pneumoniae EK-6, agar dilution, about 10^6 CFU/ml, 18 hours, 37° C. In short, it runs like this: as §1
A further data set has as its system Staph. aureus 209-P. The data set can be described thus: Anti-bacterial activity (MIC), agar dilution. Format: cell-based. The following applies: Staph. aureus 209-P, agar dilution, about 10^6 CFU/ml, 18 hours, 37° C. The procedure, abridged:
as §1

A further data set deals with Ser. marcescens ES-75. In words: Anti-bacterial activity (MIC), agar dilution. The class given is cell-based. The settings on record: Ser. marcescens ES-75, agar dilution, about 10^6 CFU/ml, 18 hours, 37° C. In short, it runs like this:
as §1

A further data set has as its system Pseud. aeruginosa EP-01. The data set can be described thus: Anti-bacterial activity (MIC), agar dilution. The class given is cell-based. The procedure, abridged:
as §1

For the next data set, the system named is Escher. coli NIHJ. The data set can be described thus: Anti-bacterial activity (MIC), agar dilution. Format: cell-based. In short, it runs like this:
as §1

The mark [2] stands for this setting: intravenous, physiological saline solution, five ICR male 6 weeks-old mouse.
The mark [3] stands for this setting: Morganella morganii, EP14, 18 h, read-out: MIC.
Setting [4] is: Klebsiella pneumoniae, EK6, 18 h, read-out: MIC.
Where [5] appears, read: Staphylococcus aureus, 209P, 18 h, read-out: MIC.
[6] abbreviates: Serratia marcescens, ES75, 18 h, read-out: MIC.
[7] abbreviates: Pseudomonas aeruginosa, EP01, 18 h, Pseud. aeruginosa EP-01, agar dilution, about 10^6 CFU/ml, 18 hours, 37° C., read-out: MIC.
Setting [8] is: Escherichia coli, 18 h, Escher. coli NIHJ, agar dilution, about 10^6 CFU/ml, 18 hours, 37° C., read-out: MIC.

Take `NC(=O)C1CC[N+](C/C=C/C2=C(C(=O)[O-])N3C(=O)[C@@H](NC(=O)/C(=N\OCF)c4nsc(N)n4)[C@H]3SC2)(CCO)CC1` (single isomer, unassigned) [Example 2-1, 7β-[2-(5-Amino-1,2,4-thiadiazol-3-yl)-(Z)-2-fluoromethoxyiminoacetamido]-3-[(E)-3-[1-(2-hydroxyethyl)-4-carbamoyl-1-piperidinio]-1-propen-1-yl]-3-cephem-4-carboxylate]: the LD50 in “in vivo” (setting [2]) is greater than 2000 mg/kg. The MIC turned out to be 0.05 µg/mL (≈ 0.0816 µM) in data set [1] (setting [3]); 0.05 µg/mL (≈ 0.0816 µM) with Kleb. pneumoniae EK-6 (setting [4]); 0.4 µg/mL (≈ 0.653 µM) in the data set on Staph. aureus 209-P (setting [5]); 0.05 µg/mL (≈ 0.0816 µM) with Ser. marcescens ES-75 (setting [6]); 1.56 µg/mL (≈ 2.55 µM) with Pseud. aeruginosa EP-01 (Pseudomonas aeruginosa, EP01, 18 h); 0.05 µg/mL (≈ 0.0816 µM) with Escher. coli NIHJ (Escherichia coli, 18 h).

For the compound `C[N+]1(C/C=C/C2=C(C(=O)[O-])N3C(=O)[C@@H](NC(=O)/C(=N\OCF)c4nsc(N)n4)[C@H]3SC2)C[C@H](O)C[C@@H]1CO` (single isomer, unassigned) [Example 6-1, 7β-[2-(5-Amino-1,2,4-thiadiazol-3-yl)-(Z)-2-fluoromethoxyiminoacetamido]-3-[(E)-3-(4R-hydroxy-2R-hydroxymethyl-1-methyl-1-pyrrolidinio)-1-propen-1-yl]-3-cephem-4-carboxylate], the LD50 in the data set “in vivo” (mouse, iv) is greater than 2000 mg/kg. For the same compound, the MIC was no more than 0.025 µg/mL in data set [1] (setting [3]); no more than 0.025 µg/mL in the data set with Kleb. pneumoniae EK-6 (setting [4]); 0.2 µg/mL (≈ 0.35 µM) with Staph. aureus 209-P (setting [5]); no more than 0.025 µg/mL in the data set with Ser. marcescens ES-75 (setting [6]); 0.8 µg/mL (≈ 1.4 µM) in the data set on Pseud. aeruginosa EP-01 (setting [7]); 0.05 µg/mL (≈ 0.0875 µM) in the data set with Escher. coli NIHJ (setting [8]).

Consider `Nc1nc(/C(=N/OCF)C(=O)N[C@@H]2C(=O)N3C(C(=O)[O-])=C(/C=C/C[N+]4(CCO)C[C@H](O)C[C@H]4CO)CS[C@H]23)ns1` (single isomer, unassigned) [Example 7-2, 7β-[2-(5-Amino-1,2,4-thiadiazol-3-yl)-(Z)-2-fluoromethoxyiminoacetamido]-3-[(E)-3-[4R-hydroxy-1-(2-hydroxyethyl)-2S-hydroxymethyl-1-pyrrolidinio]-1-propen-1-yl]-3-cephem-4-carboxylate], for which the LD50 in the data set “in vivo” (setting [2]) is greater than 2000 mg/kg. The MIC in data set [1] (18 hours) is no more than 0.025 µg/mL; against Kleb. pneumoniae EK-6 it was no more than 0.025 µg/mL; with Staph. aureus 209-P, 0.2 µg/mL (≈ 0.332 µM); with Ser. marcescens ES-75 it was no more than 0.025 µg/mL; in the data set on Pseud. aeruginosa EP-01 (Pseud. aeruginosa EP-01, agar dilution, about 10^6 CFU/ml, 18 hours, 37° C.), 0.8 µg/mL (≈ 1.33 µM); in the data set on Escher. coli NIHJ (Escher. coli NIHJ, agar dilution, about 10^6 CFU/ml, 18 hours, 37° C.), no more than 0.025 µg/mL.

As for `CC(C(N)=O)[N+]1(C/C=C/C2=C(C(=O)[O-])N3C(=O)[C@@H](NC(=O)/C(=N\OCF)c4nsc(N)n4)[C@H]3SC2)CCCC1` (single isomer, unassigned) [Example 13-1], the LD50 in the data set “in vivo” (setting [2]) was greater than 2000 mg/kg. Besides, the MIC in data set [1] (setting [3]) is no more than 0.025 µg/mL; in the data set on Kleb. pneumoniae EK-6 (setting [4]) it was no more than 0.025 µg/mL; with Staph. aureus 209-P (setting [5]) it was 0.2 µg/mL (≈ 0.343 µM); in the data set with Ser. marcescens ES-75 (setting [6]), no more than 0.025 µg/mL; with Pseud. aeruginosa EP-01 (setting [7]), 0.8 µg/mL (≈ 1.37 µM); in the data set on Escher. coli NIHJ (setting [8]), no more than 0.025 µg/mL.

Turning to `C[C@@H](C(N)=O)[N+](C)(C)C/C=C/C1=C(C(=O)[O-])N2C(=O)[C@@H](NC(=O)/C(=N\OCF)c3nsc(N)n3)[C@H]2SC1` [Example 3-1], the LD50 in the data set “in vivo” (setting [2]) is greater than 2000 mg/kg. The MIC in data set [1] (setting [3]) is no more than 0.025 µg/mL; in the data set with Kleb. pneumoniae EK-6 (setting [4]), no more than 0.025 µg/mL; with Staph. aureus 209-P (setting [5]) it was 0.2 µg/mL (≈ 0.359 µM); in the data set with Ser. marcescens ES-75 (setting [6]), 0.05 µg/mL (≈ 0.0898 µM); with Pseud. aeruginosa EP-01 (setting [7]), 0.8 µg/mL (≈ 1.44 µM); in the data set on Escher. coli NIHJ (setting [8]) it was no more than 0.025 µg/mL.

`C[C@H](C(N)=O)[N+](C)(C)C/C=C/C1=C(C(=O)[O-])N2C(=O)[C@@H](NC(=O)/C(=N\OCF)c3nsc(N)n3)[C@H]2SC1` [Example 3-2, 7β-[2-(5-Amino-1,2,4-thiadiazol-3-yl)-(Z)-2-fluoromethoximinoacetamido]-3-[(E)-3-[(1R-carbamoylethyl)dimethylammonio]-1-propen-1-yl]-3-cephem-4-carboxylate]: in the data set “in vivo” (setting [2]), the LD50 was greater than 2000 mg/kg. In addition, the MIC was no more than 0.025 µg/mL in data set [1] (setting [3]); no more than 0.025 µg/mL in the data set with Kleb. pneumoniae EK-6 (setting [4]); 0.2 µg/mL (≈ 0.359 µM) with Staph. aureus 209-P (setting [5]); 0.1 µg/mL (≈ 0.18 µM) with Ser. marcescens ES-75 (setting [6]); 1.56 µg/mL (≈ 2.8 µM) in the data set with Pseud. aeruginosa EP-01 (setting [7]); no more than 0.025 µg/mL in the data set with Escher. coli NIHJ (setting [8]).

`C[N+](C)(C/C=C/C1=C(C(=O)[O-])N2C(=O)[C@@H](NC(=O)/C(=N\OCF)c3nsc(N)n3)[C@H]2SC1)[C@H](CO)C(N)=O` [Example 5, 7β-[2-(5-Amino-1,2,4-thiadiazol-3-yl)-(Z)-2-fluoromethoxyiminoacetamido]-3-[(E)-3-[(1R-carbamoyl-2-hydroxyethyl)dimethylammonio]-1-propen-1-yl]-3-cephem-4-carboxylate]: the LD50 in “in vivo” (setting [2]) is greater than 2000 mg/kg. The MIC in data set [1] (setting [3]) is no more than 0.025 µg/mL; with Kleb. pneumoniae EK-6 (setting [4]), no more than 0.025 µg/mL; in the data set with Staph. aureus 209-P (setting [5]) it was 0.2 µg/mL (≈ 0.349 µM); in the data set on Ser. marcescens ES-75 (setting [6]), no more than 0.025 µg/mL; in the data set on Pseud. aeruginosa EP-01 (setting [7]), 0.8 µg/mL (≈ 1.4 µM); in the data set on Escher. coli NIHJ (setting [8]) it was no more than 0.025 µg/mL.

With `NC(=O)C[N+]1(C/C=C/C2=C(C(=O)[O-])N3C(=O)[C@@H](NC(=O)/C(=N\OCF)c4nsc(N)n4)[C@H]3SC2)CCC(O)C1` (stereo partly drawn) [Example 9-1, 7β-[2-(5-Amino-1,2,4-thiadiazol-3-yl)-(Z)-2-fluoromethoxyiminoacetamido]-3-[(E)-3-(1-carbamoylmethyl-3-hydroxy-1-pyrrolidinio)-1-propen-1-yl]-3-cephem-4-carboxylate], the LD50 in “in vivo” (setting [2]) was greater than 2000 mg/kg. The MIC was no more than 0.025 µg/mL in data set [1] (setting [3]); no more than 0.025 µg/mL in the data set with Kleb. pneumoniae EK-6 (setting [4]); 0.4 µg/mL (≈ 0.684 µM) in the data set with Staph. aureus 209-P (setting [5]); no more than 0.025 µg/mL with Ser. marcescens ES-75 (setting [6]); 0.8 µg/mL (≈ 1.37 µM) with Pseud. aeruginosa EP-01 (setting [7]); no more than 0.025 µg/mL in the data set on Escher. coli NIHJ (setting [8]).

Take `C[N+]1(C/C=C/C2=C(C(=O)[O-])N3C(=O)[C@@H](NC(=O)/C(=N\OCF)c4nsc(N)n4)[C@H]3SC2)CCN(S(=O)(=O)O)CC1` [Example 10, 7β-[2-(5-Amino-1,2,4-thiadiazol-3-yl)-(Z)-2-fluoromethoxyiminoacetamido]-3-[(E)-3-(1-methyl-4-sulfo-1-piperazinio)-1-propen-1-yl]-3-cephem-4-carboxylate]: the LD50 in “in vivo” (setting [2]) was greater than 2000 mg/kg. For the same compound, the MIC was no more than 0.025 µg/mL in data set [1] (setting [3]); no more than 0.025 µg/mL in the data set with Kleb. pneumoniae EK-6 (setting [4]); 0.8 µg/mL (≈ 1.29 µM) in the data set on Staph. aureus 209-P (setting [5]); no more than 0.025 µg/mL in the data set on Ser. marcescens ES-75 (setting [6]); 1.56 µg/mL (≈ 2.51 µM) with Pseud. aeruginosa EP-01 (setting [7]); no more than 0.025 µg/mL in the data set with Escher. coli NIHJ (setting [8]).

Consider `CC(=O)C[N+](C)(C)C/C=C/C1=C(C(=O)[O-])N2C(=O)[C@@H](NC(=O)/C(=N\OCF)c3nsc(N)n3)[C@H]2SC1` [Example 137, 7β-[2-(5-Amino-1,2,4-thiadiazol-3-yl)-(Z)-2-fluoromethoxyiminoacetamido]-3-[(E)-3-[(2-oxopropyl)dimethylammonio]-1-propen-1-yl]-3-cephem-4-carboxylate], for which, in “in vivo” (setting [2]), the LD50 was greater than 2000 mg/kg.

As to `N#CCO/N=C(\C(=O)N[C@@H]1C(=O)N2C(C(=O)[O-])=C(/C=C/C[N+]34CCCN3CCC4)CS[C@H]12)c1nsc(N)n1` [Example 161, 7β-[2-(5-Amino-1,2,4-thiadiazol-3-yl)-(Z)-2-cyanomethoxyiminoacetoamido]-3-[(E)-3-(1,5-diazabicyclo[3.3.0]octane-1-io)-1-propen-1-yl]-3-cephem-4-carboxylate], the MIC in data set [1] (setting [3]) amounted to 0.1 µg/mL (≈ 0.179 µM); in the data set on Kleb. pneumoniae EK-6 (setting [4]), 0.05 µg/mL (≈ 0.0893 µM); in the data set with Staph. aureus 209-P (setting [5]), 0.2 µg/mL (≈ 0.357 µM); with Ser. marcescens ES-75 (setting [6]) it was 0.2 µg/mL (≈ 0.357 µM); in the data set with Pseud. aeruginosa EP-01 (setting [7]), 1.56 µg/mL (≈ 2.79 µM); in the data set on Escher. coli NIHJ (setting [8]) it was 0.05 µg/mL (≈ 0.0893 µM).

Usually MIC stands for the smallest concentration in the dilution series that meets the test's criterion for growth inhibition.
